How the values were obtained:
Type in all cases: in vivo
[1] = tested on: German cockroaches (Blattella germanica); assay: Test Example 3: control test against German cockroaches, spray in chamber; conditions: adult German cockroaches; 1.5 mL sprayed; concentration [%]: broflanilide 0.02, imiprothrin 0.01, cyfluthrin 0.0016, alone or mixed; 420 minutes after spraying
Text: (§1) Next, the usefulness of the inventive composition for controlling pests will be indicated by Test Examples.
(§2) (hereinafter referred to as expected value A)
(§3) (hereinafter referred to as expected value B)
(§4) In a plastic cup (diameter: 12.4 cm, height: 10.2 cm) lined with a filter paper, ten adult German cockroaches (Blattella germanica) (five males and five females each) were released, and the plastic cup was placed in the center of the bottom of a box-shaped chamber (46 cm×46 cm×70 cm in height). From the height of 60 cm, 1.5 mL of each of formulations prepared by dissolving a single agent of any one of broflanilide, imiprothrin and cyfluthrin, or a mixed agent of two or more thereof in a mixture of isopropyl alcohol and Isopar M at a mixing ratio of 1:9 was sprayed under a spray pressure of 0.041 MPa. After a lapse of 420 minutes from spraying, the number of dead and moribund individuals was examined, and moribund and mortal rates (%) were determined by the above equation 3. The test was performed through two replicates. Dead individuals are completely immobile individuals, and moribund individuals are individuals who cannot get up when turned on their backs.

[2] = tested on: German cockroaches (Blattella germanica); assay: Test Example 9: control test against German cockroaches, spray in chamber; conditions: adult German cockroaches; 1.5 mL sprayed; concentration [%]: broflanilide 0.02, imiprothrin 0.01, permethrin 0.05, alone or mixed; 420 minutes after spraying
Text: as §1, §2, §3
as §4, with “permethrin,” for “cyfluthrin,”

[3] = tested on: German cockroaches (Blattella germanica); assay: Test Example 11: control test against German cockroaches, spray in chamber; conditions: adult German cockroaches; 1.5 mL sprayed; concentration [%]: isocycloseram 0.01, imiprothrin 0.01, permethrin 0.05, alone or mixed; 120 minutes after spraying
Procedure: Next, the usefulness of the inventive composition for controlling pests will be indicated by Test Examples. In general, the control effect to be expected when treated with a mixture obtained by mixing given two or three types of active ingredient compounds is determined by the Colby's calculation equation represented by the following [Equation 1] and [Equation 2].
[formula] • P: moribund and mortal rates (%) when treated with an active ingredient compound X in the concentration of m [ppm] • Q: moribund and mortal rates (%) when treated with an active ingredient compound Y in the concentration of n [ppm] • EA: moribund and mortal rates (%) when treated with an active ingredient compound X in the concentration of m [ppm] and an active ingredient compound Y in the concentration of n [ppm] (hereinafter referred to as expected value A) […]
Regarding the synergistic effect of three types of the active ingredient compounds, in case where the moribund and mortal rates (%) when actually treated with a mixture obtained by mixing three types of the active ingredient compounds exceed the expected value A calculated by using the moribund and mortal rates (%) when actually treated with a mixture obtained by mixing two types of the active ingredient compounds among three types thereof, and the moribund and mortal rates (%) calculated when actually treated the remaining one type of the active ingredient compound, or the expected value B (%) calculated from the moribund and mortal rates (%) when actually treated with each of three types of the active ingredient compounds alone, it was determined that the synergistic effect exists. […]

C#CCN1CC(=O)N(COC(=O)[C@@H]2C(C=C(C)C)C2(C)C)C1=O (mixture of isomers) [Imiprothrin, imiprothrin]
15%: Moribund and mortal rates [%] after 420 minutes [1] | Moribund and mortal rates [%] after 420 minutes [2] | Moribund and mortal rates [%] after 120 minutes [3]

Source: patent US20240373851A1, “PEST CONTROL COMPOSITION AND PEST CONTROL METHOD” (SUMITOMO CHEMICAL COMPANY, LIMITED, priority 2021, published 2024)
